Structures are written as SMILES. pEC50: −log10 of the molar value.

Holding throughout (type): functional
The subject of experiment [1] is Rattus norvegicus. Put plainly: Inhibition of rat passive cutaneous anaphylaxis (PCA) reaction was determined after oral administration. The settings on record: for ED50: Rattus norvegicus, po, read-out: ID50 (the source's name).
The species named for experiment [2] is Rattus norvegicus. In words: Inhibition of histamine release from sensitized rat mast cells in vitro. The settings on record: for pEC50: read-out: EC50.
The subject of experiment [3] is Rattus norvegicus. In words: Inhibition of rat passive cutaneous anaphylaxis (PCA) reaction after intravenous administration. As to conditions: for ED50: Rattus norvegicus, iv, read-out: ID50 (the source's name).

On to `CC1CC/C(=N\Nc2ccccc2Br)c2ncc(C(=O)O)c(=O)n21` (stereo not given), for which the ED50 in the experiment with Rattus norvegicus [1] was more than 320 µmol/kg.

For `CC1CC/C(=N\Nc2ccc(CC(=O)O)cc2)c2ncc(C(=O)O)c(=O)n21` (stereo not given), the pEC50 in the experiment listed under Rattus norvegicus [2] (Rattus norvegicus, Mast cell) is 5.47. In addition, the results for the ED50 in the experiment with Rattus norvegicus [3] and in the experiment with Rattus norvegicus [1] were 60.9 µmol/kg and more than 100 µmol/kg, respectively.

As to `CCCCc1ccc(N/N=C2\CCC(C)n3c2ncc(C(=O)O)c3=O)cc1` (stereo not given), in the experiment listed under Rattus norvegicus [2] (Rattus norvegicus, Mast cell), the pEC50 was 6.15. The ED50 in the experiment with Rattus norvegicus [3] came out at 7.8 µmol/kg; in the experiment on Rattus norvegicus [1] it was 100 µmol/kg.

`C[C@H]1CCC(=NNc2ccccc2)c2ncc(C(=O)O)c(=O)n21` (single isomer, unassigned; (-)): the pEC50 in the experiment filed under Rattus norvegicus [2] (mast cells) is 5.10. For the same molecule, the ID50 with Rattus norvegicus [3] was 54.8 µM/kg; in the experiment on Rattus norvegicus [1] it was more than 100 µM/kg.

`CC1CC/C(=N\Nc2ccc(C(F)(F)F)cc2)c2ncc(C(=O)O)c(=O)n21` (stereo not given): the pEC50 in the experiment filed under Rattus norvegicus [2] (Rattus norvegicus, Mast cell) is 6.55. In addition, the ED50 was 38.6 µmol/kg in the experiment with Rattus norvegicus [3] and more than 1000 µmol/kg in the experiment on Rattus norvegicus [1].

Take `CC1CC/C(=N\Nc2ccc([N+](=O)[O-])cc2)c2ncc(C(=O)O)c(=O)n21` (stereo not given): the pEC50 in the experiment listed under Rattus norvegicus [2] (Rattus norvegicus, Mast cell) was 5.05. In addition, the ED50 in the experiment with Rattus norvegicus [3] is 0.8 µmol/kg; with Rattus norvegicus [1] it was more than 320 µmol/kg.

As for `CCc1ccc(N/N=C2\CCC(C)n3c2ncc(C(=O)O)c3=O)cc1` (stereo not given), the ED50 in the experiment with Rattus norvegicus [1] is more than 1000 µmol/kg.

In the case of `CC1CC/C(=N\Nc2ccc(C3CC3)cc2)c2ncc(C(=O)O)c(=O)n21` (stereo not given), the pEC50 in the experiment filed under Rattus norvegicus [2] (Rattus norvegicus, Mast cell) is 6.00. In addition, the results for the ED50 with Rattus norvegicus [3] and in the experiment on Rattus norvegicus [1] were 41.1 µmol/kg and 100 µmol/kg, respectively.

With `CC(C)c1ccc(N/N=C2\CCC(C)n3c2ncc(C(=O)O)c3=O)cc1` (stereo not given), in the experiment filed under Rattus norvegicus [2] (Rattus norvegicus, Mast cell), the pEC50 was 5.92. For the same molecule, the results for the ED50 in the experiment on Rattus norvegicus [3] and in the experiment with Rattus norvegicus [1] were 2.4 µmol/kg and more than 100 µmol/kg, respectively.

For the molecule `CC1CC/C(=N\Nc2ccccc2CCO)c2ncc(C(=O)O)c(=O)n21` (stereo not given), the EC50 in the experiment listed under Rattus norvegicus [2] (mast cells) was 330 uM l-1. For the same molecule, the ED50 in the experiment on Rattus norvegicus [3] is 10.8 µmol/kg; in the experiment on Rattus norvegicus [1], more than 100 µmol/kg.

For `CC1C/C(=N\Nc2ccccc2)c2ncc(C(=O)O)c(=O)n2C1` (stereo not given), the pEC50 in the experiment listed under Rattus norvegicus [2] (Rattus norvegicus, Mast cell) was 4.89. Also, the ED50 with Rattus norvegicus [3] is 5.7 µmol/kg; with Rattus norvegicus [1] it was more than 320 µmol/kg.

On to `O=C(O)c1cc(=O)c2c(OCC(O)COc3cccc4oc(C(=O)O)cc(=O)c34)cccc2o1` [CROMOLYN SODIUM], for which the ED50 in the experiment on Rattus norvegicus [3] amounted to 1 µmol/kg.

Regarding `CCOC(=O)c1cccc(N/N=C2\CCC(C)n3c2ncc(C(=O)O)c3=O)c1` (stereo not given), in the experiment on Rattus norvegicus [1], the ED50 is more than 100 µmol/kg.

For `CCOC(=O)c1cnc2n(c1=O)C(C)CC/C2=N\Nc1cccc(C(=O)O)c1` (stereo not given), the EC50 in the experiment filed under Rattus norvegicus [2] (mast cells) worked out at 740 uM l-1. For the same molecule, the ED50 with Rattus norvegicus [3] is 100 µmol/kg.

With `CC1CC/C(=N\Nc2ccccc2C(F)(F)F)c2ncc(C(=O)O)c(=O)n21` (stereo not given), the ED50 with Rattus norvegicus [1] was more than 1000 µmol/kg.

As to `COc1ccc(N/N=C2\CCC(C)n3c2ncc(C(=O)O)c3=O)cc1` (stereo not given), the EC50 in the experiment listed under Rattus norvegicus [2] (mast cells) was found to be 128 uM l-1. Further, the ED50 with Rattus norvegicus [3] stood at 0.8 µmol/kg; with Rattus norvegicus [1], 7.6 µmol/kg.

For `CC1CC/C(=N\Nc2cccc(Cl)c2)c2ncc(C(=O)O)c(=O)n21` (stereo not given), the EC50 in the experiment filed under Rattus norvegicus [2] (mast cells) came out at 311 uM l-1. Also, the ED50 in the experiment with Rattus norvegicus [3] is 0.6 µmol/kg; in the experiment on Rattus norvegicus [1] it was more than 100 µmol/kg.

Consider `CC1CC/C(=N\Nc2ccc(-c3ccccc3)cc2)c2ncc(C(=O)O)c(=O)n21` (stereo not given), for which the pEC50 in the experiment filed under Rattus norvegicus [2] (Rattus norvegicus, Mast cell) is 5.36. For the same molecule, the values for the ED50 in the experiment on Rattus norvegicus [3] and with Rattus norvegicus [1] were 1.1 µmol/kg and more than 100 µmol/kg, respectively.

As to `CC1CC/C(=N\Nc2ccccc2F)c2ncc(C(=O)O)c(=O)n21` (stereo not given), the pEC50 in the experiment filed under Rattus norvegicus [2] (Rattus norvegicus, Mast cell) was 5.92. For the same molecule, the ED50 in the experiment on Rattus norvegicus [3] is 5 µmol/kg; in the experiment with Rattus norvegicus [1] it was more than 1000 µmol/kg.

On to `COc1ccccc1N/N=C1\CCC(C)n2c1ncc(C(=O)O)c2=O` (stereo not given), for which the ED50 in the experiment with Rattus norvegicus [1] was more than 1000 µmol/kg.

As for `CCOc1ccc(N/N=C2\CC[C@H](C)n3c2ncc(C(=O)O)c3=O)cc1`, in the experiment filed under Rattus norvegicus [2] (Rattus norvegicus, Mast cell), the pEC50 was 4.72. Further, the ED50 with Rattus norvegicus [3] was 100 µmol/kg; with Rattus norvegicus [1], more than 100 µmol/kg.

On to `CC1CC/C(=N\Nc2ccccc2C(=O)O)c2nccc(=O)n21` (stereo not given), for which the pEC50 in the experiment filed under Rattus norvegicus [2] (Rattus norvegicus, Mast cell) is 4.00. The ED50 in the experiment with Rattus norvegicus [3] and in the experiment with Rattus norvegicus [1] was more than 100 µmol/kg in each case.

Take `CCOC(=O)c1cnc2n(c1=O)C(C)CC/C2=N\Nc1ccccc1` (stereo not given): in the experiment with Rattus norvegicus [1], the ED50 was more than 1000 µmol/kg.

Take `C[C@@H]1CC/C(=N\Nc2ccc(O)cc2)c2ncc(C(=O)O)c(=O)n21`: the pEC50 in the experiment listed under Rattus norvegicus [2] (Rattus norvegicus, Mast cell) is 4.81. In addition, the ED50 with Rattus norvegicus [3] was 0.14 µmol/kg; in the experiment on Rattus norvegicus [1] it was more than 100 µmol/kg.

Consider `CCOC(=O)c1cnc2n(c1=O)C(C)CC/C2=N\Nc1ccc(C(=O)O)cc1` (stereo not given), for which, in the experiment filed under Rattus norvegicus [2] (Rattus norvegicus, Mast cell), the pEC50 is 4.18. The ED50 with Rattus norvegicus [3] is 100 µmol/kg.

For the molecule `CC1CC/C(=N\Nc2ccc(O)cc2)c2ncc(C(=O)O)c(=O)n21` (stereo not given), in the experiment filed under Rattus norvegicus [2] (Rattus norvegicus, Mast cell), the pEC50 was 5.89. Besides, the figures for the ED50 with Rattus norvegicus [3] and in the experiment with Rattus norvegicus [1] were 1.7 µmol/kg and more than 100 µmol/kg, respectively.

As to `CC1CCC(=NNc2ccccc2C(=O)O)c2ncc(C(=O)O)c(=O)n21` (single isomer, unassigned; (+)), the EC50 in the experiment filed under Rattus norvegicus [2] (mast cells) was found to be 1100 uM l-1. Also, the ID50 in the experiment on Rattus norvegicus [3] stood at 37.1 µM/kg.

For the molecule `CC1CC/C(=N\Nc2ccccc2)c2ncc(C#N)c(=O)n21` (stereo not given), the ED50 in the experiment on Rattus norvegicus [1] is more than 1000 µmol/kg.

With `CC1CC/C(=N\Nc2ccccc2)c2ncc(C(N)=O)c(=O)n21` (stereo not given), in the experiment with Rattus norvegicus [1], the ED50 is more than 1000 µmol/kg.

Regarding `CC1CC/C(=N\Nc2ccccc2)c2nccc(=O)n21` (stereo not given), the ED50 with Rattus norvegicus [1] is more than 100 µmol/kg.

Take `CC1CC/C(=N\Nc2cccc(C(F)(F)F)c2)c2ncc(C(=O)O)c(=O)n21` (stereo not given): the ED50 in the experiment on Rattus norvegicus [1] is more than 1000 µmol/kg.

As to `CCOC(=O)c1cnc2n(c1=O)C(C)CC/C2=N\Nc1ccccc1C(=O)O` (stereo not given), in the experiment filed under Rattus norvegicus [2] (Rattus norvegicus, Mast cell), the pEC50 is 4.00. Besides, in the experiment with Rattus norvegicus [3], the ED50 worked out at 10 µmol/kg.

A word on the pEC50: it is −log10 of the EC50, conventionally taken in molar units.

The values above are taken from ChEMBL document CHEMBL1121945, “Nitrogen bridgehead compounds. 18. New antiallergic 4H-pyrido[1,2-a]pyrimidin-4-ones. 1” (J Med Chem, 1982).
